Experiments:
[1] = system: MOLM-13 human acute leukemia cells; test: WST-1 viability of MOLM-13 cells; assay type: cell-based; conditions: for Abs450 nm (WST-1 viability): complexed to BSA
Description: MOLM-13 suspension cells were diluted and added to 96-well plates (15.000 cells/well).
The modified fatty acids TTA, tr-TTA, TDG (TGH) and tr-TDG (tr-TGH) were complexed to bovine serum albumin (BSA), and 10-fold dilutions of the fatty acids or BSA control were added to the wells in duplicate. Two plates were run in parallel, and WST-1 was added to the cells after 48 (plate 1) and 72 hours (plate 2). Absorbance at 450 nm measured to assess viability of the cells.

HCC827 cells = test: Resazurin conversion cell viability/proliferation assay in HCC827 cells; assay type: cell-based
Description: (§1) Non-small cell lung cancer cells, HCC827 (ATCC) were cultured in RPMI-1640 Glutamax medium (Sigma-Aldrich St. Louis, Mo., USA), under conventional culture conditions. Media was supplemented with 10% Fetal Bovine Serum (FBS), 1% glutamine and 1% streptomycin/penicillin (Sigma-Aldrich). HeLaNRF1/c4 reporter cells were cultured in Dulbecco's Modified Eagle's Medium (DMEM) supplemented with 10% FBS, 2 mM L-Glutamine, 100 u/ml penicillin/streptomycin (Sigma-Aldrich,). Incubation was done at 37° C. in 5% CO2.
(§2) Cell viability/proliferation was determined by the resazurin conversion assay. A total of 4000 cells were seeded in each of the 96-well plates in 100 μl of medium. After 3 hours of incubation, 100 μl of fresh medium with respective concentration of the desired compound or controls were added. Resazurin solution (Sigma-Aldrich) was added (10%, v/v in PBS) after 1 or 3 day treatment, followed by 3 hour incubation at 37° C. and 5% CO2. Resazurin fluorescence (excitation, 540 nm; emission, 590 nm) was measured and measurements were corrected for background signals. […] Relative viability was calculated from percent fluorescence relative to DMSO-treated control wells.

[2] = system: HeLaNRF1/c4 reporter cells; test: Resazurin conversion assay in HeLaNRF1/c4 reporter cells; assay type: cell-based; conditions: test compounds 30 μM and 60 μM, long treatment
Description: as §1, §2
In order to investigate if some of the compounds induce metabolic adaptations involving mitochondrial biogenesis, we employed the HeLaNRF1/c4 reporter cells in which activation of the transcription factor NRF1 triggers expression of GFP. Since adaptations of mitochondrial biogenesis are known to require some days to develop, we used a relatively low dosage (30 μM and 60 μM) of the compounds, to allow longer treatment period compared to the previous short term experiments.

[3] = 4 week high-fat diet study, body weight, adipose tissue, plasma glucose and cholesterol; assay type: in vivo, C57BL/6 mice; conditions: mice, N-TTA 750 mg/kg or triple-N-TTA 350 mg/kg body weight, 4 weeks
Description: This animal study was conducted according to the Guidelines for the Care and Use of Experimental Animals, and the protocol was approved by the Norwegian Food Authorities. 7 to 8-weeks old male C57BL/6 mice, were obtained from Janvier Labs. After one week of acclimatization, they were divided into 3 groups of 7 animals. One group was fed a control high-fat (25 w/v) diet while the two remaining groups were fed a high-fat diet supplemented with either N-TTA (750 mg/kg body weight) or triple-N-TTA (350 mg/kg body weight). After 4 weeks of feeding, the mice were anaesthetized with Isofluorane (Forane, Abbot Laboratories Ltd, Illinois, USA) inhalation under fasting conditions, and blood and liver samples were collected. […]
Glucose and lipids in plasma was measured on the Hitachi 917 system (Roche Diagnostics, GmbH, Mannheim, Germany) using kits from Roche Diagnostics or DiaSys.

CCCCCCCCCCCCCCNCC(=O)O [N-TTA, N-tetradecylglycine]
Abs450 nm (WST-1 viability) ([1]; 48 hours, 0.0625 mM): 0.9307 | Abs450 nm (WST-1 viability) ([1]; 48 hours, 0.125 mM): 0.4765 | Abs450 nm (WST-1 viability) ([1]; 48 hours, 0.25 mM): 0.5423 | Abs450 nm (WST-1 viability) ([1]; 48 hours, 0.5 mM): 0.3207 | Abs450 nm (WST-1 viability) ([1]; 48 hours, 1 mM): 0.257 | Abs450 nm (WST-1 viability) ([1]; 48 hours, 2 mM): 0.3163 | Abs450 nm (WST-1 viability) ([1]; 72 hours, 0.03125 mM): 0.4491 | Abs450 nm (WST-1 viability) ([1]; 72 hours, 0.0625 mM): 0.8073 | Abs450 nm (WST-1 viability) ([1]; 72 hours, 0.125 mM): 0.4813 | Abs450 nm (WST-1 viability) ([1]; 72 hours, 0.25 mM): 0.203 | Abs450 nm (WST-1 viability) ([1]; 72 hours, 0.5 mM): 0.175 | Abs450 nm (WST-1 viability) ([1]; 72 hours, 1 mM): 0.1893 | Abs450 nm (WST-1 viability) ([1]; 72 hours, 2 mM): 0.2359 | toxicity to leukemic cells ([1]; MOLM-13, compared with TTA and tr-TTA): toxic to leukemic cells at a lower concentration than TTA and tr-TTA | dose-dependent pattern of antiproliferative effects (HCC827 cells; HCC827 cells, three different concentrations): dose-dependent pattern of antiproliferative effects was found | overall effects on cell viability and mitochondrial function (summary) (HCC827 cells; cultured cells, relatively high dosage): cytotoxic effects | resazurin conversion [2]: dose-dependent reduction | LDL cholesterol (plasma) [3]: reduced | body weight gain vs high-fat control diet [3]: significantly lower | cholesterol esters (plasma) [3]: reduced | epididymal white adipose tissue depot [3]: reduced in size | free cholesterol (plasma) [3]: reduced | perirenal white adipose tissue depot [3]: reduced in size | total cholesterol (plasma) [3]: reduced | blood glucose vs high-fat control diet ([3]; fasting): significantly lower

From patent US20220249525A1, “Fatty Acid Compounds for Prevention and Treatment of Neurodegenerative Disorders” (T OMEGA AS, priority 2019, published 2022)
